# Measured values as given in patent US8133471B2, “CLK-peptide and SLK-peptide” (New York University, priority 2003, dated 2012).
# No end group written: not given here.
# Assays:
# [1] = tested on: denatured collagen type-IV; assay: 99Tc-CLK-Peptide competitive binding to denatured collagen type-IV (gamma counter); details: 99Tc-CLK-peptide 10 μg/ml, 50 μl/well; collagen 10 μg/ml
# Experimental: FIG. 18 Inhibition of 99Tc-CLK-Peptide binding by unlabeled HUI77.
# FIG. 19 Inhibition of Binding of Labeled CLK-Peptide to Denatured Collagen Type-IV by mAb HUI77. Denatured collagen type-IV (10 μg/ml) was coated on microtiter wells and binding of 99Tc-labeled CLK-Peptide in the presence or absence of unlabeled CLK-peptide or mAb HUI77 was measured. As shown in the figure, 99Tc-CLK-peptide (10 μg/ml, 50 μl/well) specifically binds to denatured collagen type-IV (first bar from left). […] 99Tc-CLK-peptide was also allowed to bind to denatured collagen type-IV in the presence or absence of Mab HUI77 (fourth and fifth bars from left). […] These findings provide further evidence that the CLK-peptide binds to a similar if not identical epitope recognized by Mab HUI77.
# ^99Tc-CLK-Peptide was used in competitive binding studies to further characterize the CLK epitope. To evaluate the ability of HUI77 to compete with binding to denatured type-IV collagen, type-IV collagen was denatured at 60° C. for 15 minutes at a concentration of […] in PBS. […] The supernatant, washes and collagen-coated wells were counted in a gamma counter (1 minute counts in duplicate).
# In addition, denatured collagen type-IV (10 μg/ml) was coated on microtiter wells and binding of ^99Tc-labeled CLK-Peptide in the presence or absence of either unlabeled CLK-peptide or mAb HUI77 was measured using a gamma counter. […]
# [2] = tested on: Human endothelial cells (HUVECs); assay: Endothelial cord formation in MATRIGEL; assay type: cell-based; details: 0 to 100 μg/ml, 24 hours
# Experimental: FIG. 6 Effects of CLK Peptide on HUVEC Cord Formation in MATRIGEL®. MATRIGEL was added to 96-well plates and allowed to form three-dimensional gels. […] Representative photos were taken at a magnification of 100×. A. Untreated control. B. CLK 25 μg/ml. C. CLK 50 μg/ml. D. CLK 100 μg/ml. E. Control Peptide 100 μg/ml.
# The role that the CLK cryptic collagen epitope plays in regulating endothelial cell morphogenesis and cord formation, processes important in angiogenesis, were investigated. MATRIGEL was diluted in M199 medium and 300 μl were added to the wells of a 48-well culture plate and allowed to polymerize. […] Endothelial morphogenesis and cord formation was monitored with an inverted microscope fitted with a 35 mm camera to document cord formation.
# [3] = tested on: Human melanoma cells (M21); assay: M21 cell adhesion to denatured or native collagen type-IV or fibronectin (Example 9); assay type: cell-based; details: 0-100 μg/ml
# Experimental: Non-tissue culture treated 48-well plates were coated with denatured collagen type-IV at 10 μg/ml. […] Cell adhesion was quantified by measuring the O.D. of eluted dye at 600 nm. Data bars represent the mean O.D.±standard deviation from triplicate wells. Assays were completed 2 to 3 times with similar results.
# Non-tissue culture treated 48-well plates were coated with native collagen type-IV or fibronectin at 10 μg/ml. Human melanoma cells (M21) were allowed to attach to the coated wells in the presence or absence of CLK-Peptide or control peptide CTW at 0-100 μg/ml. Cell adhesion was quantified by measuring the O.D. of eluted dye at 600 nm. Data bars represent the mean O.D.±standard deviation from triplicate wells. Assays were completed 2 to 3 times with similar results. A. Adhesion to native collagen type-IV. B. Adhesion to Fibronectin.
# Adhesion assays were performed to study the effects of CLK-peptide on tumor cell adhesion in vitro. Microtiter wells were coated with either native collagen type-IV or the control ECM protein fibronectin. Malignant melanoma cells (M21) were allowed to bind to the coated substrates in the presence or absence of CLK peptide or a control peptide, CTW.
# [4] = tested on: Glioblastoma (GL261) cells; assay: GL261 glioblastoma cell adhesion to collagen type-IV; assay type: cell-based, murine; details: 50 μg/ml
# Experimental: FIG. 21 Effects of CLK-Peptide on Glioblastoma Cell Adhesion to Denatured Collagen Type-IV.
# To assess the functional significance of the HUI77/CLK cryptic epitope, cell adhesion assays using a glioblastoma cell line were performed. Microtiter plates were coated with denatured collagen type-IV (10 μg/ml). Glioblastoma (GL261) cells were resuspended in adhesion buffer in the presence or absence of CLK-peptide or a non-specific control (CTW) peptide (50 μg/ml) and the […] were incubated in the coated wells for 30 minutes. Non-attached cells were removed by washing, and attached cells quantified by staining with crystal violet.
# [5] = tested on: Human melanoma cells M21; assay: M21 melanoma cell adhesion to denatured collagen type-IV (Example 2); assay type: cell-based; details: M21 cells on denatured collagen type-IV; peptide 250 μg/ml
# Text: FIG. 1 is a chart which illustrates M21 human melanoma cell adhesion to untreated denatured type-IV collagen (NT), CLK-peptide treated denatured collagen type-IV, SLK-peptide treated denatured collagen type-IV, and SDR-peptide treated denatured collagen type-IV.
# SLK peptides bind to functional epitopes within denatured collagen type-IV that regulate cellular adhesion. Non-tissue culture treated 48-well plates were coated with denatured collagen type-IV. Human melanoma cells M21 (Scripps Research Institute, La Jolla, Calif.) were allowed to attach to the coated wells in the presence or absence of the synthetic peptides CLK, SLK, and SDR, each peptide was at a concentration of 250 μg/ml. SDR peptide is a commercially available peptide that was used as a control (QED Bioscience, Inc., San Diego, Calif.).
# Human denatured collagen type-IV (25 μg/ml) was immobilized on 48-well nontissue culture treated plates. Wells were washed and incubated with 1% BSA (bovine serum albumin) in PBS (phosphate-buffered saline) for one hour at 37° C. Subconfluent […] were harvested, washed, and resuspended in adhesion buffer containing RPMI-1640 medium, 1 mM MgCl2, 0.2 mM MnCl2, and 0.5% BSA. […] Cell adhesion was quantified by measuring the optical density of eluted crystal violet at a wavelength of 600 nm.
substance,measurement,setting,value
"99Tc-CLK-peptide: 99Tc-labeled CLK-Peptide used in competitive binding studies (CLKQNGGNFSLG; also: 99Tc-labeled, site not given here)",binding to denatured collagen type-IV,[1],specifically bound
CTWPRHHTTDALL (control peptide) [reference compound],effect on endothelial cord formation,[2],little if any effect
same,effect on M21 cell adhesion to fibronectin,[3],Neither CLK-Peptide nor the control peptide had any effect
same,effect on M21 cell adhesion to native triple helical collagen type-IV,[3],Neither CLK-Peptide nor the control peptide had any effect
same,effect on M21 cell attachment to denatured collagen type-IV,[3],no effect
same,effect on glioblastoma cell adhesion to denatured collagen type-IV,[4],no effect
NH2-S-L-K-Q-N-G-G-N-F-S-L-C-COOH (H-SLKQNGGNFSLC-OH) [SLK-peptide],blockade of melanoma cell adhesion,[5],about 50%
